B1: 3-phosphoshikimate 1-carboxyvinyltransferase (Escherichia coli K-12), P0A6D3 (protein)
chain: MESLTLQPIARVDGTINLPGSKSVSNRALLLAALAHGKTVLTNLLDSDDVRHMLNALTALGVSYTLSADRTRCEIIGNGGPLHAEGALELFLGNAGTAMRPLAAALCLGSNDIVLTGEPRMKERPIGHLVDALRLGGAKITYLEQENYPPLRLQGGFTGGNVDVDGSVSSQFLTALLMTAPLAPEDTVIRIKGDLVSKPYIDITLNLMKTFGVEIENQHYQQFVVKGGQSYQSPGTYLVEGDASSASYFLAAAAIKGGTVKVTGIGRNSMQGDIRFADVLEKMGATICWGDDYISCTRGELNAIDMDMNHIPDAAMTIATAALFAKGTTTLRNIYNWRVKETDRLFAMATELRKVGAEVEEGHDYIRITPPEKLNFAEIATYNDHRMAMCFSLVALSDTPVTILDPKCTAKTFPDYFEQLARISQAA

Consider twelve molecules from ChEMBL document CHEMBL1126518, “EPSP synthase inhibitor design II. The importance of the 3-phosphate group for ligand binding at the shikimate-3-phosphate site & the identification of 3-malonate ethers as novel 3-phosphate mimics” (Bioorg Med Chem Lett, 1993).

Substrate in one data set: C=C(O[C@@H]1CC(C(=O)O)=C[C@@H](O)[C@H]1O)C(=O)O
Nature of the data set: (§1) Enzyme Kinetic activity was calculated against Escherichia coli EPSP(5-enolpyruvyl-shikimate-3-phosphate) Synthase.
As to B1, the Km was 24 mM.

The next data set concerns the target T1, 3-phosphoshikimate 1-carboxyvinyltransferase (Escherichia coli K-12) (UniProt P0A6D3).
T1 sequence (whole entry): B1 chain
Described as §1.
As to `C=C(O[C@@H]1CC(C(=O)O)=C[C@@H](O)[C@H]1O)C(=O)O`, the k cat was 0.2 s⁻¹.

For another data set, the target named is T2, 3-phosphoshikimate 1-carboxyvinyltransferase (Escherichia coli K-12, UniProt P0A6D3).
T2 sequence (P0A6D3 whole entry): B1 chain
The data set is described as follows: Inhibition of Escherichia coli EPSP(5-enolpyruvyl-shikimate-3-phosphate) Synthase.
Take `O=C(O)C1=C/C(=C/P(=O)(O)O)CCC1`: the IC50 was greater than 90 mM.

In turn, `O=C(O)C1=C/C(=C\P(=O)(O)O)CCC1` came in with an IC50 greater than 90 mM.

`O=C(O)C1=CC(CP(=O)(O)O)CCC1` (stereo not drawn): the IC50 was greater than 90 mM.

For the molecule `O=C(CP(=O)(O)O)O[C@@H]1CC(C(=O)O)=C[C@@H](O)[C@H]1O`, the IC50 is greater than 90 mM.

As to `O=C(O)C1=CC(OC(C(=O)O)C(=O)O)CCC1` (stereo not drawn), the IC50 came to 15 mM.

Take `C=C(O[C@@H]1CC(C(=O)O)=C[C@@H](O)[C@H]1O)C(=O)O`: the IC50 is greater than 90 mM. In the case of `O=C(O)C1=CC(OCP(=O)(O)O)CCC1` (stereo not drawn), the IC50 is greater than 90 mM.

`O=C(O)C1=CC(OP(=O)(O)O)CCC1` (stereo not drawn) had a 50% inhibitory concentration (IC50) of 7.5 mM. This lies in the millimolar range. As for `O=C(O)CO[C@@H]1CC(C(=O)O)=C[C@@H](O)[C@H]1O`, the IC50 is greater than 90 mM.

For `O=C(O)C1=CC(C(C(=O)O)C(=O)O)CCC1` (stereo not drawn), the IC50 was greater than 90 mM.

In the case of `O=C(O)CO[C@@H]1CC(C(=O)O)=C[C@@H](OP(=O)(O)O)[C@H]1O`, the IC50 came out at 0.1 mM.

As usually defined, the Km is the concentration of substrate that gives half-maximal velocity. A word on the IC50: it is the concentration needed to halve the response being measured. A low value points to greater potency.
